Test results as given in patent US8309341B2, “2-mercaptocyclopentanecarboxylic acid compounds, a process for their preparation and pharmaceutical compositions containing them” (Les Laboratories Server, priority 2009, dated 2012).
Counter-ions that a name gives are not always drawn.

target: T1, TAFIa (purified human TAFI activated by thrombin-thrombomodulin complex) (Homo sapiens, UniProt Q96IY4); assay: Inhibition of TAFIa (chromogenic substrate, TAFI Activity Kit); assay type: biochemical; conditions: 3.2 nM TAFIa; compound incubated 5 minutes at 20° C., chromogenic substrate 30 minutes at 37° C., OD at 490 nm; read-out: IC50 (concentration which inhibits 50% of the enzymatic activity of TAFIa)
T1 construct: purchased American Diagnostica TAFI Activity Kit (catalogue number not given)
T1 sequence (Q96IY4 115-423): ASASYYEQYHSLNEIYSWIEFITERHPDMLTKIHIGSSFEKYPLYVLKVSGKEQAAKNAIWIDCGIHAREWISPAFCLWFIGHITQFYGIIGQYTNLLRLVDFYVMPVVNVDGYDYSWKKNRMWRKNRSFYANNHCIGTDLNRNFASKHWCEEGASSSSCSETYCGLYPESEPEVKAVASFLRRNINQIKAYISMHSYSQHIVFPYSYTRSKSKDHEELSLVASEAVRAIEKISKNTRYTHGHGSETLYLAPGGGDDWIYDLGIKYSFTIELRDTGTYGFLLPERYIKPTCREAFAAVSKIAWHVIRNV
Method: Purified human TAFI (25 ng) is activated by adding thrombin-thrombomodulin complex in the presence of calcium chloride. After incubating for 20 minutes at 20° C., the reaction is stopped by adding the irreversible thrombin inhibitor PPACK (TAFI Activity Kit, American Diagnostica).
The compound under test is added to the (3.2 nM) TAFIa solution and incubated for 5 minutes at 20° C. A chromogenic TAFIa substrate is added and then incubated for 30 minutes at 37° C. The enzymatic reaction is stopped by adding sulphuric acid (TAFI Activity Kit, American Diagnostica). The optical density (OD) of the solution is measured at 490 nm with the aid of a spectrophotometer (Spectramax, Molecular Devices). The OD value of a well containing the reagents without the TAFI is subtracted from each of the OD values measured. The percentage inhibition of TAFIa at a given concentration of the compound under test is determined using the following formula: % inhibition=100−[(OD of compound×100)/OD of carrier]
The concentration of compound of the invention which inhibits 50% of the enzymatic activity of TAFIa (IC50) is calculated from the inhibition percentages of the OD values measured for increasing concentrations of the compound under test using non-linear regression according to a sigmoidal four-parameter equation (effect-dose).

SMILES	IC50 [nM]
NCCC[C@@]1(C(=O)O)CCC[C@@H]1S [Example 1, (1R,2S)-1-(3-Aminopropyl)-2-mercaptocyclopentanecarboxylic acid trifluoroacetate]	6.7 ± 0.6
NCCCC[C@]1(C(=O)O)CCC[C@H]1S (single isomer, unassigned; enantiomer 2) [Example 10, 1-(4-Aminobutyl)-2-mercaptocyclopentanecarboxylic acid trifluoroacetate (cis diastereoisomer, enantiomer 2)]	81 ± 16
NCCCCC1(C(=O)O)CCCC1S (single isomer, unassigned) [Example 8, 1-(4-Aminobutyl)-2-mercaptocyclopentanecarboxylic acid trifluoroacetate (racemic cis diastereoisomer)]	178 ± 11
NCCC[C@@]1(C(=O)O)CCC[C@@H]1S [Example 3, (1R,2S)-1-(3-Aminopropyl)-2-mercaptocyclopentanecarboxylic acid hydrochloride]	7.4 ± 1.1
NCCC[C@@]1(C(=O)O)CCC[C@@H]1SS[C@H]1CCC[C@@]1(CCCN)C(=O)O [Example 20, (1R,2S,1′R,2′S)-2,2′-Disulphanediylbis[1-(3-aminopropyl)cyclopentane-carboxylic acid]dihydrochloride]	186 ± 26
NCCCC1(C(=O)O)CCCC1S (single isomer, unassigned) [Example 6, 1-(3-Aminopropyl)-2-mercaptocyclopentanecarboxylic acid trifluoroacetate (racemic cis diastereoisomer)]	14 ± 2
CC(=O)S[C@H]1CCC[C@@]1(CCCN)C(=O)O [Example 2, (1R,2S)-2-Acetylthio-1-(3-aminopropyl)-cyclopentanecarboxylic acid hydrochloride]	22 ± 6
O=C(O)[C@@]1(CC2CCNCC2)CCC[C@H]1S (single isomer, unassigned) [Example 13, 2-Mercapto-1-(piperidin-4-ylmethyl)-cyclopentanecarboxylic acid trifluoroacetate (racemic cis diastereoisomer)]	184 ± 22
